# Experimental data: patent publication US5312919A, “Photooxidation products and derivatives thereof of merocyanine-540, their preparation and uses” (priority 1992, dated 1994)
# Like-named read-outs stand apart in the source and are kept apart here.
# Assays:
# U266B1 (myeloma) = assay: Inhibition of cell proliferation, U266B1 (MTT assay); assay type: cell-based; conditions: 24 hr.
# Description: (§1) Preactivated MC 540 is abbreviated as pMC 540. […] 52: 831-38 (1990); and T. Mosmann, J. Immulog. Methods 65: 55-63 (1983).
# Each cell type (1×10^6 cells/ml; in triplicate) was treated with indicated concentrations of merocil or merodantoin. […] The cytotoxicity in vehicle only (cremophor EL) controls was not detectable at highest dose tested.
# [1] = tested on: L1210 mouse leukemia cells; assay: Combined effect on L1210 mouse leukemia cells (MTT assay); conditions: MC = 12.5 μg/ml; MD = 25 μg/ml; MZ = 25 μg/ml; overnight
# Description: The biological activities of the photooxidation products of MC 540 were determined. Preactivated MC 540 is abbreviated as pMC 540. Assays of antitumor activities of the products were carried out according to published standard methods.
# Mouse leukemia L1210 cells (1 × 10^6 cells/ml) were treated wit
# different combinations of the indicated compounds (isolated from
# preactivated merocyanine 540). After overnight incubation the cell kill
# was determined by MTT assay.
# [2] = tested on: JEG-3 (choriocarcinoma, human); assay: Inhibition of cell proliferation, JEG-3 (MTT assay); assay type: cell-based; conditions: for inhibition at 1.56 µg/mL / inhibition at 3.13 µg/mL / inhibition at 6.25 µg/mL / inhibition at 12.5 µg/mL: read-out: % inhibition of cell proliferation
# Description: as §1
# Each cell type (1×10^6 cells/ml; in triplicate) was treated with indicated concentrations of merocil or merodantoin. After overnight (20 hr.) or 5 day incubation periods, the cell viability was determined by MTT assay and calculated as a percentage of untreated controls. The toxicity in vehicle only (cremophor EL) controls was not detectable at highest dose tested.
smiles,measurement,setting,value
"CCCCN1C(=O)C(=O)N(CCCC)C1=S [Merodantoin, N,N'-Dibutyl-2-thio-4,5-imidazolindion]",inhibition at 1.56 µg/mL,"U266B1 (myeloma); 1.56 μg/ml, read-out: % inhibition of cell proliferation",8%
same,inhibition at 3.13 µg/mL,"U266B1 (myeloma); 3.13 μg/ml, read-out: % inhibition of cell proliferation",10%
same,inhibition at 6.25 µg/mL,"U266B1 (myeloma); 6.25 μg/ml, read-out: % inhibition of cell proliferation",10%
same,inhibition at 12.5 µg/mL,"U266B1 (myeloma); 12.5 μg/ml, read-out: % inhibition of cell proliferation",12%
same,inhibition at 25 µg/mL,U266B1 (myeloma); 25.0 μg/ml,12%
same,% Cell Kill,[1],64%
same,inhibition at 1.56 µg/mL,"[2]; JEG-3, 1.56 μg/ml, 20 hr.",15%
same,inhibition at 3.13 µg/mL,"[2]; JEG-3, 3.13 μg/ml, 20 hr.",53%
same,inhibition at 6.25 µg/mL,"[2]; JEG-3, 6.25 μg/ml, 20 hr.",88%
same,inhibition at 12.5 µg/mL,"[2]; JEG-3, 12.5 μg/ml, 20 hr.",100%
same,inhibition at 25 µg/mL,"[2]; JEG-3, 25.0 μg/ml, 20 hr.",100%
same,inhibition at 1.56 µg/mL,"[2]; JEG-3, 120 h, 1.56 μg/ml, 5 days",18%
same,inhibition at 3.13 µg/mL,"[2]; JEG-3, 120 h, 3.13 μg/ml, 5 days",38%
same,inhibition at 6.25 µg/mL,"[2]; JEG-3, 120 h, 6.25 μg/ml, 5 days",91%
same,inhibition at 12.5 µg/mL,"[2]; JEG-3, 120 h, 12.5 μg/ml, 5 days",100%
same,inhibition at 25 µg/mL,"[2]; JEG-3, 120 h, 25.0 μg/ml, 5 days",100%
